# Experimental data: the METLIN SMRT retention time set (Domingo-Almenara et al. 2019)
# Test: gradient 5% acetonitrile 3 min, to 50% in 2 min, to 85% in 15 min, held 3 min, 100 µL/min
# Settings: column: Zorbax Extend-C18 2.1 x 50 mm; eluents: water / acetonitrile, 0.1% formic acid
# Outline: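 The mobile phases were water and acetonitrile, each with 0.1% formic acid, pumped at 100 μL/min through a Zorbax Extend-C18 column (2.1 × 50 mm, 1.8 μm). Pure standards were injected as mixtures of ~100 molecules and detected by a quadrupole time-of-flight mass spectrometer in positive and negative ionization mode. Retention time came from computationally picked adduct peaks, each inspected by hand.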
row,SMILES,RP-LC retention time [s]
1,Cn1c(=O)n([C@@H]2CCN(C(=O)c3ccc4c(c3)OCO4)C2)c2ncccc21,688
2,Cc1ccnc(N2CCC(C(=O)NC(C)c3ccc4c(c3)OCCO4)CC2)n1 (stereo not drawn),672
3,CC(C)CC(NC(=O)c1ccccc1)C(=O)Nc1nc2ccccc2[nH]1 (stereo not drawn),725
4,CCOC(=O)CCNC(=O)N1CCN(Cc2nc3cccnc3n2-c2ccccc2)CC1,590
5,CCOC(=O)c1nc(N(CC)c2ccccc2)c2ccccc2n1,769
6,CCc1nc(N2CCC(C(=O)NCc3ccc(OC)c(OC)c3)CC2)c2c(C)scc2n1,650
7,CC1=C(c2ccc(Cl)cc2)S(=O)(=O)N=C1N1CCC(C(=O)NCCc2ccco2)CC1,870
8,CCOc1nc2ccccc2nc1N1CCCC(C(=O)N2CCOCC2)C1 (stereo not drawn),983
9,Cc1cc(C)cc(Oc2nccn3c(=O)n(CC(=O)Nc4ccccc4C)nc23)c1,838
10,Cc1noc(C)c1CN1CCC(NC(=O)c2ccc3c(c2)OCO3)CC1,590
11,Cn1cc(-c2nc(C(=O)Nc3ccccc3F)cs2)c2cccnc21,1040
12,COc1ccc(C(=O)O)nc1C,552
13,COc1ccc(CN2CC3(CCN(S(=O)(=O)c4c(C)nn(C)c4C)CC3)C2=O)cc1,761
14,O=C(NCc1ccco1)c1c2c(nc3ccccc13)C(=O)N(C1CCCCC1)C2,808
15,CCc1sc(NC(=O)CCc2ccccc2)nc1-c1ccccc1,1150
16,CC(C)CCNC(=O)C1CCN(c2nc3ccc(-c4cncnc4)nc3s2)CC1,824
17,CC1(C)C(=O)N(CC(=O)Nc2ccccc2F)c2ccccc21,869
18,Cn1cnc(S(=O)(=O)NCCc2noc(-c3ccncc3)n2)c1,596
19,Cc1cccc(-c2noc(Cn3c(=O)n(Cc4ccco4)c(=O)c4ccccc43)n2)c1,1090
20,COc1ccc2c(c1)C1(CCN(C(=O)NCCc3ccccc3)C1)C(=O)N2C (stereo not drawn),757
21,Cc1ccc(CN2CCN(CC(=O)Nc3cc(C)cc(C)c3)C(=O)C2=O)cc1,838
22,COc1ccccc1NC(=O)C1=C(C)NC(=O)NC1c1cccs1 (stereo not drawn),665

row,SMILES,RP-LC retention time [s]
1,O=C(CCNc1c(-c2ccc(F)cc2)nc2cnccn12)Nc1ccc2c(c1)OCCO2,704
2,COC(=O)C1=C(C)NC(C)=C(C(=O)OC2CCCN(Cc3ccccc3)C2)C1c1cccc([N+](=O)[O-])c1 (stereo not drawn),844
3,O=C(NCCC1CCN(C(=O)Nc2ccccc2)CC1)c1ccoc1,704
4,CCOC(=O)c1c(C)[nH]c(C(=O)N2CCCC(C(=O)NCc3ccco3)C2)c1C (stereo not drawn),722
5,COc1cccc(-c2cc(C(=O)N3CCN(c4ccccc4F)CC3)n(C)n2)c1,772
6,COc1nn(C)cc1C(=O)NCc1cc(-c2ccco2)on1,644
7,O=C1NCCN2CC3(CCN(S(=O)(=O)Cc4ccccc4)CC3)CC12 (stereo not drawn),594
8,CSc1ccc(-c2nc3cnccn3c2Nc2cccc(C(=O)O)c2)cc1,744
9,Cc1cccc(C)c1Nc1c(-c2ccccc2F)nc2ccc(Br)cn12,893
10,O=C(CCc1cc(Cl)no1)NCCc1noc(C2CC2)n1,693
11,Cc1cccc(-n2c(=O)c3sccc3n(Cc3nc(-c4ccc(C)c(C)c4)no3)c2=O)c1,1150
12,Cc1ccc(CNC(=O)c2ncn3c2C(=O)N(C2CC2)C(C)(C(=O)NCc2ccc(F)cc2)C3)cc1 (stereo not drawn),799
13,CCOC(=O)c1nc(NC(CC)CN(C)Cc2ccccc2)c2c(C)noc2n1 (stereo not drawn),672
14,Cc1ccc(Nc2nc(C)cc(N3CCN(S(=O)(=O)c4cc(C(C)C)ccc4C)CC3)n2)cc1,950
15,O=C(NC1CCCC1)c1nc(C(=O)N2CCN(c3ncccn3)CC2)cs1,759
16,COc1cc(Cn2nc(C)c3cnn(C(C)(C)C)c3c2=O)cc(OC)c1,1070
17,COc1ccc(C(=O)N2CCC(n3c(-c4ccco4)nc4cccnc43)C2)cn1 (stereo not drawn),643
18,O=C(NCC1CCOCC1)Nc1ccccc1C(F)(F)F,734
19,Cc1sc2ccn(Cc3ccc(F)cc3)c(=O)c2c1C(=O)NCC1CC1,858
20,NS(=O)(=O)c1ccc(CCNC(=O)c2coc(NC(=O)c3cccs3)n2)cc1,603
21,Nc1ccccc1Sc1cc(Cl)nnc1Cl,983
22,Cc1ccc(NC(=O)Cn2c(=O)nc(N3CCCC(C)C3)c3ccccc32)cc1C (stereo not drawn),895

row,SMILES,RP-LC retention time [s]
1,O=C(Cc1ccc(F)cc1)N1CCCCC1c1nncn1CC1CC1 (stereo not drawn),735
2,CCN1c2cc(Cl)ccc2C(=O)NC12CCN(C(=O)Nc1ccc(C)cc1C)CC2,968
3,COc1cccc(CNC(=O)c2ccc3c(c2)nc2n3CCN(C3CCCCC3)C2=O)c1,774
4,COC(=O)C1=C(C)N(C2CCCCC2)C(=O)C1(NC(=O)c1cccc(OC)c1)C(F)(F)F (stereo not drawn),1070
5,CC(=O)N1CCc2cc(-c3ccc(C(=O)N4CCN(C(=O)c5ccco5)CC4)cc3)ccc21,662
6,O=C(NCc1nc(-c2ccc(N3CCCC3)cc2)no1)c1ccco1,889
7,Clc1cccc(-c2nc3ccc(Cl)cn3c2Nc2ccc3c(c2)OCCO3)c1,939
8,Cc1nc(OCC(=O)Nc2ccc(Br)cc2F)c2ccccc2n1,820
9,O=C(NC1CCCCC1)C1CCCN(C(=O)c2cc(-c3ccccn3)n[nH]2)C1 (stereo not drawn),659
10,CC(C)c1ccc(NC(=O)C2CCN(S(=O)(=O)c3ccc4c(c3)sc(=O)n4C)CC2)cc1,993
11,C=CCn1c(C)c(CC(=O)NCCOC)c(=O)n2nc(-c3ccc(C)cc3)nc12,732
12,c1ccc(OCc2nc(-c3ccc4c(c3)nnn4CCN3CCCCC3)no2)cc1,698
13,O=C(NCc1ccco1)C1CCN(c2cc(N3CCCCC3)ncn2)CC1,632
14,O=C(NCC1CCOCC1)Nc1cccc(Cl)c1,735
15,CCOc1cc(C(=O)NC2CCN(c3cc(-c4ccccc4)[nH]n3)C2)cc(OCC)c1OCC (stereo not drawn),822
16,Cn1ncn2cc(S(=O)(=O)NCc3ccccc3Cl)cc2c1=O,792
17,CN1C(=O)c2cccnc2Sc2cc(NC(=O)c3c(F)cccc3Cl)ccc21,783
18,O=c1n(Cc2ccc(F)cc2Cl)nc2c(S(=O)(=O)N3CCCC3)cccn12,1020
19,CCC(=O)N1CCc2cc(C(=O)NCC3CCCO3)ccc21 (stereo not drawn),642
20,CC(C)Cn1cc(CCNC(=O)Nc2cccc(Br)c2)c2cccnc21,904
21,O=C(CCc1c(-c2ccc(F)cc2)nc2ccccn12)N1CCN(c2ccccc2F)CC1,694
22,COc1ccccc1CC(=O)Nc1ccc(-c2nc(Cn3nc(C)cc3C)c(C)o2)cc1,924

row,SMILES,RP-LC retention time [s]
1,O=C1C2N=NN(Cc3nc(-c4ccccc4)no3)C2C(=O)N1c1ccc(F)cc1 (stereo not drawn),945
2,O=C1COc2ccccc2N1Cc1nc(-c2ccc(Br)cc2)no1,1110
3,Cn1cc(-c2nc(C(=O)Nc3ccc(Cl)cc3F)cs2)c2cccnc21,1260
4,COc1ccc(-c2noc(C3CCCN3C(=O)Nc3ccc(F)cc3F)n2)cc1 (stereo not drawn),963
5,CCCn1cc(CCNC(=O)Nc2ccc(C)cc2Cl)c2cccnc21,886
6,Cc1ccc(S(=O)(=O)CC(=O)Nc2nc(-c3ccc4c(c3)OCO4)cs2)cc1,924
7,O=C([C@@H]1C[C@H](F)CN1S(=O)(=O)c1ccccc1)N1CCCCC1,735
8,CCS(=O)(=O)Nc1ccc(-c2noc(C(C)NC(=O)c3ccccc3)n2)cc1 (stereo not drawn),777
9,COc1ccc(NC(=O)Cn2c(=O)n(-c3ccccc3)c3ncccc32)c(OC)c1,808
10,O=c1c2cc(-c3cccs3)nn2cnn1Cc1nc(-c2cccc(C(F)(F)F)c2)no1,1140
11,CC(C)CNC(=O)c1ccc2c(ccn2C)c1,784
12,COc1cccc(N2CCN(C(=O)c3cc(C4CC4)[nH]n3)CC2)c1,813
13,COc1nc2ccccc2nc1N1CCCC(C(=O)NCc2ccco2)C1 (stereo not drawn),951
14,COc1cccc(CNC(=O)C2CCCN2S(=O)(=O)c2cc3c(cc2C)NC(=O)CO3)c1 (stereo not drawn),721
15,Nc1nc2ccc(Cl)cc2n2c(-c3ccccc3)nnc12,867
16,CCc1ccc(CNC(=O)C2CCCN(c3nn4c(=O)c5c(nc4s3)CCCC5)C2)cc1 (stereo not drawn),983
17,Cc1ccc(-c2nc3cc(C)ccn3c2NC(=O)c2ccc(Cl)cc2)cc1,742
18,CC(C)[C@H](C(=O)Nc1ccc(C(=O)NO)cc1)c1ccccc1,791
19,Cn1c(=O)c(-c2ccc(C(=O)NC3CCCCC3)cc2)nc2cccnc21,882
20,CCCOc1ccc(Nc2nc(C(=O)OCC)nc3ccccc23)cc1,941
21,Cc1ccc(-c2cn3ccn(-c4ccc(F)cc4)c(=O)c3n2)c(C)c1,873
22,Cc1noc(-c2nn(C)c3c2CN(C(=O)Nc2ccc(F)cc2)CC3)n1,723
